# Experiments:
# Assay type in all cases: cell-based
# [1] = tested on: perforin positive CD8 T cells; assay: Perforin positive CD8 T cell number after CD3/CD28 stimulation of human PBMCs for 4 days, flow cytometry; conditions: hLA212_H4/L2 10 μg/mL, tacrolimus 10 nM, PBMCs of two donors
# Procedure: (§1) PBMCs were separated from human peripheral blood by Ficoll centrifugation and added to a 96-well U-bottom microplate in an amount of 4×10^5 cells/well. Human IL-2 (PeproTech, Inc., final concentration: 100 ng/mL) and Dynabeads Human T-Activator CD3/CD28 (Life Technologies Corp., 4×105 beads/well) were added thereto, and T cells were activated by culture for 4 days. The obtained cells were recovered, suspended in a FACS buffer (PBS, 0.1% BSA, and 0.1% sodium azide), and then reacted with Human BD Fc Block (Becton, Dickinson and Company) at room temperature for 10 minutes. Subsequently, the cell surface was stained by reaction at 4° C. for 30 minutes with fluorescently labeled antibodies diluted with a FACS buffer containing a LIVE/DEAD Fixable Dead Cell Stain Kit-near-IR fluorescent reactive dye (manufactured by Invitrogen Corp.), followed by washing with a FACS buffer. […] The data was analyzed using FlowJo (manufactured by Tree Star Inc). After removal of the LIVE/DEAD Fixable Dead Cell Stain Kit-near-IR fluorescent reactive dye-positive dead cells by gating, only the living cells were analyzed by further gating CD3 positive and CD8 positive CD8 T cells. […]
# CD28 negative T cells = assay: CD28 negative T cell number after CD3/CD28 stimulation of human PBMCs for 4 days, flow cytometry; conditions: tacrolimus 10 nM, dexamethasone 1 μM, two donors
# Procedure: (§2) PBMCs were separated from human peripheral blood by Ficoll centrifugation and added to a 96-well U-bottom microplate in an amount of 4×10^5 cells/well. Human IL-2 (PeproTech, Inc., final concentration: 100 ng/mL) and Dynabeads Human T-Activator CD3/CD28 (Life Technologies Corp., 4×105 beads/well) were added thereto, and T cells were activated by culture for 4 days. The obtained cells were recovered, suspended in a FACS buffer (PBS, 0.1% BSA, and 0.1% sodium azide), and then reacted with Human BD Fc Block (Becton, Dickinson and Company) at room temperature for 10 minutes. […] The data was analyzed using FlowJo (manufactured by Tree Star Inc). After removal of the LIVE/DEAD Fixable Dead Cell Stain Kit-near-IR fluorescent reactive dye-positive dead cells by gating, only the living cells were analyzed by further gating CD3 positive and CD8 positive CD8 T cells.
# (§3) The effect of the humanized anti-human LAG-3 antibody hLA212_H4/L2, the calcineurin inhibitor tacrolimus, and the corticosteroid dexamethasone on CD28 negative T cells and CD57 positive T cells was investigated in the assay system of Example 13. […] Out of the living cells, a CD3 positive and CD8 negative fraction and a CD3 positive and CD8 positive fraction were analyzed as CD4 T cells and CD8 T cells, respectively.
# CD57 positive T cells = assay: CD57 positive T cell number after CD3/CD28 stimulation of human PBMCs for 4 days, flow cytometry; conditions: tacrolimus 10 nM, dexamethasone 1 μM, two donors
# Procedure: as §2, §3
# T cells (total number) = assay: Total T cell number after CD3/CD28 stimulation of human PBMCs for 4 days, flow cytometry; conditions: hLA212_H4/L2 10 μg/mL, tacrolimus 10 nM, dexamethasone 1 μM, PBMCs of two donors
# Procedure: as §1
# [2] = hLA212_H4/L2 10, 1, 0.1 μg/mL (effect concentration dependent)
structure (smiles),measurement,setting,value
"C=CC[C@@H]1/C=C(\C)C[C@H](C)C[C@H](OC)[C@H]2O[C@@](O)(C(=O)C(=O)N3CCCC[C@H]3C(=O)O[C@H](/C(C)=C/[C@@H]3CC[C@@H](O)[C@H](OC)C3)[C@H](C)[C@@H](O)CC1=O)[C@H](C)C[C@@H]2OC [tacrolimus, reference compound]","number of perforin positive CD8 T cells, compared with the control",[1],rarely different from those of the control
same,number of CD28 negative CD8 T cells,CD28 negative T cells; [2],evident reduction in the number of CD28 negative CD8 T cells as found for the LAG-3 antibody was not observed
same,number of CD28 negative CD4 T cells,"CD28 negative T cells; hLA212_H4/L2 10, 1, 0.1 μg/mL",hardly effective or rather increased the cell number
same,number of CD57 positive CD8 T cells,CD57 positive T cells; [2],evident reduction in the number of CD57 positive CD8 T cells as found for the LAG-3 antibody was not observed
same,number of CD57 positive CD4 T cells,"CD57 positive T cells; hLA212_H4/L2 10, 1, 0.1 μg/mL",such an effect was hardly observed
same,"total number of T cells after culture, compared with the control",T cells (total number),slightly reduced

# Reference: patent US12145987B2, “Method for depleting cytotoxic T cells using an anti-LAG-3 antibody composition” (Daiichi Sankyo Company, Limited, priority 2017, dated 2024)
